Bridge positions count the residues as written; N and C are the ends. Ends that are not written are not given here.
Tested on: patients with chronic idiopathic constipation (CIC)
Experiment: Second phase 3 CIC trial: CSBM weekly responders by week
Assay type: in vivo, human
Conditions: MRA
Excerpt: Both trials include a two-week pre-treatment baseline period, a 12-week treatment period, and a two-week post-treatment period. The phase 3 CIC program was designed to support regulatory submission in the U. S.
The primary endpoint for both trials is the proportion of durable overall responders (%), which is the current regulatory endpoint required for U.S. approval in CIC. The FDA has defined a durable overall responder as a patient who fulfills both ≧3 complete spontaneous bowel movements (CSBMs) per week plus an increase of ≧1 CSBM from baseline in the same week, for 9 out of the 12 treatment weeks. In addition, the same patient must be an overall responder for at least 3 of the last 4 treatment weeks in order to be considered a durable overall responder.
Patients were selected using Rome 3 criteria modified for CIC and had (1) fewer than 3 defecations per week, (2) loose stools occurring rarely without laxatives, (3) inadequate criteria for irritable bowel syndrome with constipation (IBS-C), and (4) at least two of the following applied to at least 25% of defecations: (a) straining during evacuation, (b) lumpy or hard stools, (c) sensation of anorectal obstruction or blockage. Rome 3 requires patients to fulfill the criteria for the last 3 months with symptom onset at least 6 months prior to diagnosis.

[1] = Post-Treatment Week 13, 3 mg, All Randomized (includes Duplicate Patients)
[2] = Post-Treatment Week 13, 3 mg, ITT Population
[3] = Post-Treatment Week 13, 3 mg, ITT Population-Excluding Duplicate Patients
[4] = Post-Treatment Week 13, 6 mg, All Randomized (includes Duplicate Patients)
[5] = Post-Treatment Week 13, 6 mg, ITT Population
[6] = Post-Treatment Week 13, 6 mg, ITT Population-Excluding Duplicate Patients
[7] = Post-Treatment Week 13, Active Combined, All Randomized (includes Duplicate Patients)
[8] = Post-Treatment Week 13, Active Combined, ITT Population-Excluding Duplicate Patients
[9] = Post-Treatment Week 13, Active Combined, ITT Population
[10] = Post-Treatment Week 14, 3 mg, All Randomized (includes Duplicate Patients)
[11] = Post-Treatment Week 14, 3 mg, ITT Population
[12] = Post-Treatment Week 14, 3 mg, ITT Population-Excluding Duplicate Patients
[13] = Post-Treatment Week 14, 6 mg, ITT Population
[14] = Post-Treatment Week 14, 6 mg, ITT Population-Excluding Duplicate Patients
[15] = Post-Treatment Week 14, Active Combined, ITT Population-Excluding Duplicate Patients
[16] = Post-Treatment Week 14, Active Combined, ITT Population
[17] = Week 1, 3 mg, ITT Population-Excluding Duplicate Patients
[18] = Week 1, 6 mg, ITT Population-Excluding Duplicate Patients
[19] = Week 1, Active Combined, ITT Population-Excluding Duplicate Patients
[20] = Week 1, Active Combined, ITT Population
[21] = Week 2, 3 mg, ITT Population-Excluding Duplicate Patients

## Asn^1-Asp^2-Glu^3-Cys^4-Glu^5-Leu^6-Cys^7-Val^8-Asn^9-Val^10-Ala^11-Cys^12-Thr^13-Gly^14-Cys^15-Leu^16 (NDECELCVNVACTGCL; disulfide 4-12, 7-15) [Plecanatide, uroguanylin analogue, guanylate cyclase-C agonist; (C4:C12, C7:C15) bicycle peptide]
Post-Treatment Week 13, 3 mg minus placebo, All Randomized (includes Duplicate Patients)
  Difference in Proportions (adjusted): 0.042
Post-Treatment Week 13, 3 mg vs placebo, All Randomized (includes Duplicate Patients)
  Odds Ratio (adjusted): 0.796
[1]
  CSBM Weekly Responders, n (%): 125 (26.6) n (%)
  Non-Responders, n (%): 345 (73.4) n (%)
[2]
  CSBM Weekly Responders, n (%): 121 (27.3) n (%)
  Non-Responders, n (%): 322 (72.7) n (%)
[3]
  CSBM Weekly Responders, n (%): 119 (27.4) n (%)
  Non-Responders, n (%): 315 (72.6) n (%)
Post-Treatment Week 13, 6 mg minus placebo, All Randomized (includes Duplicate Patients)
  Difference in Proportions (adjusted): 0.003
Post-Treatment Week 13, 6 mg vs placebo, All Randomized (includes Duplicate Patients)
  Odds Ratio (adjusted): 0.981
[4]
  CSBM Weekly Responders, n (%): 107 (22.7) n (%)
  Non-Responders, n (%): 364 (77.3) n (%)
[5]
  CSBM Weekly Responders, n (%): 106 (23.6) n (%)
  Non-Responders, n (%): 343 (76.4) n (%)
[6]
  CSBM Weekly Responders, n (%): 105 (23.7) n (%)
  Non-Responders, n (%): 338 (76.3) n (%)
[7]
  CSBM Weekly Responders, n (%): 232 (24.7) n (%)
  Non-Responders, n (%): 709 (75.3) n (%)
Post-Treatment Week 13, 3 mg minus placebo, ITT Population-Excluding Duplicate Patients
  Difference in Proportions (adjusted): 0.045
Post-Treatment Week 13, 3 mg minus placebo, ITT Population
  Difference in Proportions (adjusted): 0.044
Post-Treatment Week 13, 3 mg vs placebo, ITT Population-Excluding Duplicate Patients
  Odds Ratio (adjusted): 0.786
Post-Treatment Week 13, 3 mg vs placebo, ITT Population
  Odds Ratio (adjusted): 0.792
Post-Treatment Week 13, 6 mg minus placebo, ITT Population-Excluding Duplicate Patients
  Difference in Proportions (adjusted): 0.008
Post-Treatment Week 13, 6 mg minus placebo, ITT Population
  Difference in Proportions (adjusted): 0.007
Post-Treatment Week 13, 6 mg vs placebo, ITT Population-Excluding Duplicate Patients
  Odds Ratio (adjusted): 0.954
Post-Treatment Week 13, 6 mg vs placebo, ITT Population
  Odds Ratio (adjusted): 0.962
[8]
  CSBM Weekly Responders, n (%): 224 (25.5) n (%)
  Non-Responders, n (%): 653 (74.5) n (%)
[9]
  CSBM Weekly Responders, n (%): 227 (25.4) n (%)
  Non-Responders, n (%): 665 (74.6) n (%)
Post-Treatment Week 14, 3 mg minus placebo, All Randomized (includes Duplicate Patients)
  Difference in Proportions (adjusted): 0.019
Post-Treatment Week 14, 3 mg vs placebo, All Randomized (includes Duplicate Patients)
  Odds Ratio (adjusted): 0.886
[10]
  CSBM Weekly Responders, n (%): 95 (20.2) n (%)
  Non-Responders, n (%): 375 (79.8) n (%)
[11]
  CSBM Weekly Responders, n (%): 94 (21.2) n (%)
  Non-Responders, n (%): 349 (78.8) n (%)
[12]
  CSBM Weekly Responders, n (%): 93 (21.4) n (%)
  Non-Responders, n (%): 341 (78.6) n (%)
Post-Treatment Week 14, 6 mg minus placebo, All Randomized (includes Duplicate Patients)
  Difference in Proportions (adjusted): −0.003
Post-Treatment Week 14, 6 mg vs placebo, All Randomized (includes Duplicate Patients)
  Odds Ratio (adjusted): 1.020
Post-Treatment Week 14, 6 mg, All Randomized (includes Duplicate Patients)
  CSBM Weekly Responders, n (%): 85 (18.0) n (%)
[13]
  CSBM Weekly Responders, n (%): 83 (18.5) n (%)
  Non-Responders, n (%): 366 (81.5) n (%)
[14]
  CSBM Weekly Responders, n (%): 82 (18.5) n (%)
  Non-Responders, n (%): 361 (81.5) n (%)
Post-Treatment Week 14, Active Combined, All Randomized (includes Duplicate Patients)
  CSBM Weekly Responders, n (%): 180 (19.1) n (%)
Post-Treatment Week 14, 3 mg minus placebo, ITT Population-Excluding Duplicate Patients
  Difference in Proportions (adjusted): 0.024
Post-Treatment Week 14, 3 mg minus placebo, ITT Population
  Difference in Proportions (adjusted): 0.026
Post-Treatment Week 14, 3 mg vs placebo, ITT Population-Excluding Duplicate Patients
  Odds Ratio (adjusted): 0.860
Post-Treatment Week 14, 3 mg vs placebo, ITT Population
  Odds Ratio (adjusted): 0.852
Post-Treatment Week 14, 6 mg minus placebo, ITT Population-Excluding Duplicate Patients
  Difference in Proportions (adjusted): −0.005
Post-Treatment Week 14, 6 mg minus placebo, ITT Population
  Difference in Proportions (adjusted): −0.002
Post-Treatment Week 14, 6 mg vs placebo, ITT Population-Excluding Duplicate Patients
  Odds Ratio (adjusted): 1.032
Post-Treatment Week 14, 6 mg vs placebo, ITT Population
  Odds Ratio (adjusted): 1.011
[15]
  CSBM Weekly Responders, n (%): 175 (20.0) n (%)
  Non-Responders, n (%): 702 (80.0) n (%)
[16]
  CSBM Weekly Responders, n (%): 177 (19.8) n (%)
  Non-Responders, n (%): 715 (80.2) n (%)
Week 1, 3 mg minus placebo, All Randomized (includes Duplicate Patients)
  Difference in Proportions (adjusted): 0.123
Week 1, 3 mg vs placebo, All Randomized (includes Duplicate Patients)
  Odds Ratio (adjusted): 0.468
Week 1, 3 mg, All Randomized (includes Duplicate Patients)
  Non-Responders, n (%): 342 (72.8) n (%)
Week 1, 3 mg, ITT Population
  CSBM Weekly Responders, n (%): 121 (27.3) n (%)
  Non-Responders, n (%): 322 (72.7) n (%)
[17]
  CSBM Weekly Responders, n (%): 121 (27.9) n (%)
  Non-Responders, n (%): 313 (72.1) n (%)
Week 1, 6 mg minus placebo, All Randomized (includes Duplicate Patients)
  Difference in Proportions (adjusted): 0.106
Week 1, 6 mg vs placebo, All Randomized (includes Duplicate Patients)
  Odds Ratio (adjusted): 0.513
Week 1, 6 mg, All Randomized (includes Duplicate Patients)
  Non-Responders, n (%): 351 (74.5) n (%)
Week 1, 6 mg, ITT Population
  CSBM Weekly Responders, n (%): 114 (25.4) n (%)
  Non-Responders, n (%): 335 (74.6) n (%)
[18]
  CSBM Weekly Responders, n (%): 114 (25.7) n (%)
  Non-Responders, n (%): 329 (74.3) n (%)
Week 1, Active Combined, All Randomized (includes Duplicate Patients)
  Non-Responders, n (%): 693 (73.6) n (%)
Week 1, 3 mg minus placebo, ITT Population-Excluding Duplicate Patients
  Difference in Proportions (adjusted): 0.123
Week 1, 3 mg minus placebo, ITT Population
  Difference in Proportions (adjusted): 0.118
Week 1, 3 mg vs placebo, ITT Population-Excluding Duplicate Patients
  Odds Ratio (adjusted): 0.477
Week 1, 3 mg vs placebo, ITT Population
  Odds Ratio (adjusted): 0.488
Week 1, 6 mg minus placebo, ITT Population-Excluding Duplicate Patients
  Difference in Proportions (adjusted): 0.102
Week 1, 6 mg minus placebo, ITT Population
  Difference in Proportions (adjusted): 0.099
Week 1, 6 mg vs placebo, ITT Population-Excluding Duplicate Patients
  Odds Ratio (adjusted): 0.533
Week 1, 6 mg vs placebo, ITT Population
  Odds Ratio (adjusted): 0.539
[19]
  CSBM Weekly Responders, n (%): 235 (26.8) n (%)
  Non-Responders, n (%): 642 (73.2) n (%)
[20]
  CSBM Weekly Responders, n (%): 235 (26.3) n (%)
  Non-Responders, n (%): 657 (73.7) n (%)
Week 2, 3 mg minus placebo, All Randomized (includes Duplicate Patients)
  Difference in Proportions (adjusted): 0.089
Week 2, 3 mg vs placebo, All Randomized (includes Duplicate Patients)
  Odds Ratio (adjusted): 0.582
Week 2, 3 mg, All Randomized (includes Duplicate Patients)
  CSBM Weekly Responders, n (%): 120 (25.5) n (%)
Week 2, 3 mg, ITT Population
  CSBM Weekly Responders, n (%): 112 (25.3) n (%)
  Non-Responders, n (%): 331 (74.7) n (%)
[21]
  CSBM Weekly Responders, n (%): 110 (25.3) n (%)
  Non-Responders, n (%): 324 (74.7) n (%)
